A value given as a limit tells only on which side of the number the result lay.

Consider 24 compounds from patent US11999746B2, “Compounds” (GlaxoSmithKline Intellectual Property Development Limited, priority 2014, dated 2024).

Assay [1] concerns the target T1, recombinant human Lp-PLA2 (Homo sapiens, UniProt Q13093).
T1 sequence (Q13093 22-441): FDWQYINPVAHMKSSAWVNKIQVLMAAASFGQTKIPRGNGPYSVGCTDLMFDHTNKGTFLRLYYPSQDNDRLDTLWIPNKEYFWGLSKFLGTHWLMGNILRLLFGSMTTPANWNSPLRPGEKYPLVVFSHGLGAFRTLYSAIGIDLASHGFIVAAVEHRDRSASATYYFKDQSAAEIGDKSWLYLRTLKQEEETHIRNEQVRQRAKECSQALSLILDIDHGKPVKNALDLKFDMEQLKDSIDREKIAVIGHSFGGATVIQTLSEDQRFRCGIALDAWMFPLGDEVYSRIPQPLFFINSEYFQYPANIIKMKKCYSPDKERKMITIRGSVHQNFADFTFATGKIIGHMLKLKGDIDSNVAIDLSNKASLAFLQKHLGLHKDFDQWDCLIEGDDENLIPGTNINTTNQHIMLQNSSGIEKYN
Briefly: (1a) PED6 assay, recombinant human Lp-PLA2 (rhLp-PLA2). It counts as biochemical. As to conditions: Examples 1-167 and 413-430 were tested here, one experiment or average of multiple experiments, read-out: rhLp-PLA2 (pIC50) (converted). The essentials:
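PED6 (2 μM final after 1:1 addition of 4 μM stock) cleavage by rhLp-PLA2 (4 nM working solution) in 50 mM HEPES pH 7.4, 150 mM NaCl, 1 mM CHAPS; compounds preincubated with enzyme 30 minutes, reaction 20 min at room temperature. Fluorescence at ex 480/em 540; pIC50 from curve fit.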

A further assay deals with T2, Lp-PLA2 in human plasma (Homo sapiens, UniProt Q13093).
T2 construct: from tissue; host or cells: pooled human plasma
T2 sequence (Q13093 22-441): T1 sequence (Q13093 22-441)
Briefly: (3a) Lp-PLA2 human plasma Thio-PAF assay. It counts as biochemical. As to conditions: (3a) Thio-PAF assay, pooled human plasma; Examples 1-265 and 413-430 were tested here; read-out: pIC50 in the Lp-PLA2 human plasma assay (converted). The procedure, abridged:
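Pooled human plasma preincubated 30 min with serially diluted compound, then given 2-thio-PAF substrate with CPM and NEM in 50 mM HEPES pH 7.4, 150 mM NaCl, 1 mM CHAPS. Reaction quenched with TFA after 2 min; CPM thiol-adduct fluorescence read at ex 380/em 485 after 40 min; pIC50 reported.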

As for `N#Cc1cc(COc2cc3n(c(=O)n2)CC2CCCN32)ccc1Oc1cc(F)cc(F)c1` (stereo not drawn) [Example E87, 2-(3,5-Difluorophenoxy)-5-(((1-oxo-1,6,7,8,8a,9-hexahydropyrrolo[1,2′:3,4]imidazo[1,2-c]pyrimidin-3-yl)oxy)methyl)benzonitrile], the results for the IC50 (in assay [1]; at Lp-PLA2 in human plasma) were at most 1 nM and at most 100 nM, respectively.
The matching figures for `N#Cc1cc(COc2cc3n(c(=O)n2)CC2CCCCN32)ccc1Oc1ccc(Cl)c(F)c1` (stereo not drawn) [Example E24, 2-(4-Chloro-3-fluorophenoxy)-5-(((1-oxo-6,7,8,9,9a,10-hexahydro-1H pyrido-[1′,2′:3,4]imidazo[1,2-c]pyrimidin-3-yl)oxy)methyl)benzonitrile]: at most 1 nM and at most 100 nM.
Turning to `O=c1nc(OCc2ccc(Oc3cnc(C(F)(F)F)nc3)c(F)c2)cc2n1C[C@@H]1CCCN21` [Example E72, (S)-3-((3-fluoro-4-((2-(trifluoromethyl)pyrimidin-5-yl)oxy)benzyl)oxy)-7,8,8a, 9-tetra hydropyrrolo[1′,2′:3,4]imidazo[1,2-c]pyrimidin-1(6H)-one], the IC50 in assay [1] was at most 100 nM; at Lp-PLA2 in human plasma, at most 10000 nM.
Consider `O=c1nc(OCc2ccc(Oc3cnc(C(F)(F)F)nc3)c(F)c2)cc2n1CC1CCCCN21` (stereo not drawn) [Example E43, 3-((3-fluoro-4-((2-(trifluoromethyl)pyrimidin-5-yl)oxy)benzyl)oxy)-6,7,8,9,9a,10-hexahydro-1H-pyrido[1′,2′:3,4]imidazo[1,2-c]pyrimidin-1-one], for which the IC50 (in assay [1]; on Lp-PLA2 in human plasma) was at most 100 nM each time.
Take `Cn1cc(Oc2c(F)cc(COc3cc4n(c(=O)n3)C[C@H]3COCN43)cc2F)cn1` [Example E143, (S)-6-((3,5-difluoro-4-((1-methyl-1H-pyrazol-4-yl)oxy)benzyl)oxy)-10,10a-dihydro-1H-oxazolo[3′,4′:3,4]imidazo[1,2-c]pyrimidin-8(3H)-one]: the IC50 in assay [1] was at most 100 nM; on Lp-PLA2 in human plasma, at most 10000 nM.
For the compound `O=c1nc(OCc2cc(F)c(Oc3cncc(C(F)(F)F)c3)c(F)c2)cc2n1CC1CCCCN21` (stereo not drawn) [Example E21, 3-((3,5-Difluoro-4-((5-(trifluoromethyl)pyridin-3-yl)oxy)benzyl)oxy)-6,7,8,9,9a,10-hexahydro-1H-pyrido[1′,2′:3,4]imidazo[1,2-c]pyrimidin-1-one], the results for the IC50 (in assay [1]; on Lp-PLA2 in human plasma) were at most 1 nM and at most 100 nM, respectively.
The matching figures for `O=c1nc(OCc2ccc(Oc3ccc(F)c(F)c3)c(F)c2)cc2n1CC1CCCCN21` (stereo not drawn) [Example E18, 3-((4-(3,4-Difluorophenoxy)-3-fluorobenzyl)oxy)-6,7,8,9,9a,10-hexahydro-1H-pyrido[1′,2′:3,4]imidazo[1,2-c]pyrimidin-1-one]: at most 100 nM and at most 10000 nM.
Consider `Cc1ccc(Oc2c(F)cc(COc3cc4n(c(=O)n3)C[C@@H]3COCN43)cc2F)cn1` [Example E157, (R)-6-((3,5-difluoro-4-((6-methylpyridin-3-yl)oxy)benzyl)oxy)-10,10a-dihydro-1H-oxazolo[3′,4′:3,4]imidazo[1,2-c]pyrimidin-8(3H)-one], for which the IC50 in assay [1] was at most 100 nM; on Lp-PLA2 in human plasma, at most 10000 nM.
On to `N#Cc1cc(COc2cc3n(c(=O)n2)CC2CCCN32)ccc1Oc1cccc(F)c1` (stereo not drawn) [Example E85, 2-(3-fluorophenoxy)-5-(((1-oxo-1,6,7,8,8a,9-hexahydropyrrolo[1,2′:3,4]imidazo[1,2-c]pyrimidin-3-yl)oxy)methyl)benzonitrile], for which the IC50 was at most 1 nM in assay [1] and at most 100 nM at Lp-PLA2 in human plasma.
Turning to `O=c1nc(OCc2cc(F)c(Oc3ccnc(C(F)(F)F)c3)c(F)c2)cc2n1C[C@@H]1CCOCN21` [Example E134, (S)-3-((3,5-difluoro-4-((2-(trifluoromethyl)pyridin-4-yl)oxy)benzyl)oxy)-8,9,9a,10-tetrahydropyrimido[6′,1′:2,3]imidazo[1,5-c][1,3]oxazin-1(6H)-one], the IC50 in assay [1] is at most 1 nM; at Lp-PLA2 in human plasma it was at most 100 nM.
For `N#Cc1cccc(COc2cc3n(c(=O)n2)CC2CCCCN32)c1` (stereo not drawn) [Example E6, 3-(((1-Oxo-6,7,8,9,9a,10-hexahydro-1H-pyrido[1′,2′:3,4]imidazo[1,2-c]pyrimidin-3-yl)oxy)methyl)benzonitrile], the IC50 in assay [1] was at most 100 nM; on Lp-PLA2 in human plasma it was at most 10000 nM.
On to `Cn1cc(Oc2c(F)cc(COc3cc4n(c(=O)n3)CC3COCCN43)cc2F)cn1` (stereo not drawn) [Example E108, 7-((3,5-Difluoro-4-((1-methyl-1H-pyrazol-4-yl)oxy)benzyl)oxy)-3,4,11,11a-tetrahydro pyrimido[6′,1′:2,3]imidazo[5,1-c][1,4]oxazin-9(1H)-one], for which the IC50 (in assay [1]; at Lp-PLA2 in human plasma) was at most 100 nM in each case.
On to `O=c1nc(OCc2cc(F)c(F)c(F)c2)cc2n1C[C@@H]1COCN21` [Example E153, (R)-6-((3,4,5-trifluorobenzyl)oxy)-10,10a-dihydro-1H-oxazolo[3′,4′:3,4]imidazo[1,2-c] pyrimidin-8(3H)-one], for which the values for the IC50 (in assay [1]; on Lp-PLA2 in human plasma) were at most 100 nM and at most 10000 nM, respectively.
For the compound `CCCn1cc(Oc2c(F)cc(COc3cc4n(c(=O)n3)C[C@H]3COCCN43)cc2F)cn1` [Example E112, (S)-7-((3,5-difluoro-4-((1-propyl-1H-pyrazol-4-yl)oxy)benzyl)oxy)-3,4,11,11atetrahydropyrimido[6′,1′:2,3]imidazo[5,1-c][1,4]oxazin-9(1H)-one], the IC50 is at most 1 nM in assay [1] and at most 100 nM on Lp-PLA2 in human plasma.
For `O=c1nc(OCc2cccc(F)c2)cc2n1C[C@@H]1COCCN21` [Example E132, (R)-7-((3-fluorobenzyl)oxy)-3,4,11,11a-tetrahydropyrimido[6′,1′:2,3]imidazo[5,1-c][1,4] oxazin-9(1H)-one] the same measures were at most 100 nM and at most 10000 nM.
The matching figures for `CN1c2cc(OCc3cc(F)c(F)c(F)c3)nc(=O)n2CC12CCCC2` [Example 414, 1′-methyl-7′-((3,4,5-trifluorobenzyl)oxy)-1′H-spiro[cyclopentane-1,2′-imidazo[1,2-c]pyrimidin]-5′(3′H)-one]: at most 100 nM and at most 100 nM.
For `O=c1nc(OCc2cc(F)c(OC3CCCC(F)(F)C3)c(F)c2)cc2n1CC1CCCN21` (stereo not drawn) [Example E92, 3-((4-((3,3-difluorocyclohexyl)oxy)-3,5-difluorobenzyl)oxy)-7,8,8a,9-tetrahydropyrrolo[1′,2′:3,4]imidazo[1,2-c]pyrimidin-1(6H)-one] the same measures were at most 100 nM and at most 10000 nM.
As to `N#Cc1cc(Oc2ccc(COc3cc4n(c(=O)n3)CC3CCCCN43)cc2F)ccc1Cl` (stereo not drawn) [Example E11, 2-Chloro-5-(2-fluoro-4-(((1-oxo-6,7,8,9,9a,10-hexahydro-1H-pyrido[1′,2′:3,4]imidazo[1,2-c]pyrimidin-3-yl)oxy)methyl)phenoxy)benzonitrile], the values for the IC50 (in assay [1]; at Lp-PLA2 in human plasma) were at most 1 nM and at most 100 nM, respectively.
As for `CN1c2cc(OCc3cccc(F)c3)nc(=O)n2CC12CCC2` [Example 413], the results for the IC50 (in assay [1]; on Lp-PLA2 in human plasma) were at most 100 nM and at most 10000 nM, respectively.
With `O=c1nc(OCc2ccc(Oc3ccc(C(F)(F)F)nc3)c(F)c2)cc2n1CC1CCCCN21` (stereo not drawn) [Example E48, 3-((3-Fluoro-4-((6-(trifluoromethyl)pyridin-3-yl)oxy)benzyl)oxy)-6,7,8,9,9a,10-hexahydro-1H-pyrido[1′,2′:3,4]imidazo[1,2-c]pyrimidin-1-one], the IC50 in assay [1] was at most 1 nM; on Lp-PLA2 in human plasma, at most 10000 nM.
For the compound `O=c1nc(OCc2ccc(F)cc2F)cc2n1C[C@H]1COCCN21` [Example E126, (S)-7-((2,4-difluorobenzyl)oxy)-3,4,11,11a-tetrahydropyrimido[6′,1′:2,3]imidazo[5,1-c][1,4] oxazin-9(1H)-one], the IC50 is at most 100 nM in assay [1] and at most 10000 nM at Lp-PLA2 in human plasma.
On to `N#Cc1cccc(COc2cc3n(c(=O)n2)C[C@@H]2CCCCN32)c1` [Example E33, (S)-3-(((1-Oxo-6,7,8,9,9a,10-hexahydro-1H-pyrido[1′,2′:3,4]imidazo[1,2-c]pyrimidin-3-yl)oxy)methyl)benzonitrile], for which the IC50 is at most 100 nM in assay [1] and at most 10000 nM at Lp-PLA2 in human plasma.
Consider `CCn1cc(Oc2c(F)cc(COc3cc4n(c(=O)n3)C[C@@H]3COCCN43)cc2F)cn1` [Example E121, (R)-7-((4-((1-ethyl-1H-pyrazol-4-yl)oxy)-3,5-difluorobenzyl)oxy)-3,4,11,11a-tetrahydropyrimido[6′,1′:2,3]imidazo[5,1-c][1,4]oxazin-9(1H)-one], for which the IC50 in assay [1] is at most 100 nM; at Lp-PLA2 in human plasma, at most 10000 nM.
The matching figures for `O=c1nc(NCc2cccc(F)c2)cc2n1C[C@H]1CCCN21` [Example E104, (R)-3-((3-fluorobenzyl)amino)-7,8,8a,9-tetrahydropyrrolo[1′,2′:3,4]imidazo[1,2-c]pyrimidin-1(6H)-one]: at most 100 nM and at most 10000 nM.
